Data as given in patent US20250163057A1, “DCN-1 MODULATING COMPOUNDS AND METHODS OF USE THEREOF” (Cellarity, Inc., priority 2023, published 2025).
Where two headings read alike, the source gives them in different places.

How the values were obtained:
[1] = biological target: DCN1 protein (Homo sapiens (Human), UniProt Q96GG9); assay: Intact Protein MS Analysis with the RapidFire-TOF System (covalent adduct formation); type: binding; conditions: MS Emax; 400 nM DCN1, 3 hours at room temperature
Protocol: An MS assay was performed to evaluate the ability of the compounds to covalently modify DCN-1.
DCN1 protein, His-TEV-DCN1, were expressed in E. Coli. The His-tagged protein was first purified with an Ni-NTA column. The His-tag was cleaved using His-tag TEV protease and the His-tags were removed using a second Ni-NTA column. Protein purity was verified with SDS-PAGE and intact MS. DCN1 was dissolved in a buffer containing 25 mM Tris-HCl, 200 mM NaCl, and 1 mM DTT at 400 nM. 11 concentrations of compounds were added to the DCN1 solution and incubated at room temperature for 3 hours, unless otherwise specified. The reaction plates were quenched by adding 0.2% formic acid. […] The cartridge was re-equilibrated with loading buffer for 1 second before collection of the next sample. The Q-TOF was operated in TOF-only positive ionization mode set to the following parameters: Gas Temp=350 C, Drying Gas=7 l/min, Nebulizer=50 psi, Sheath Gas Temp=400 C, Sheath Gas Flow=12 l/min, Vcap=4000 V, Nozzle Voltage=1000 V, Fragmentor=125 V, Skimmer=65 V and Oct 1 RF Vpp=750V. Raw MS data files were deconvoluted and analyzed using the Agilent MassHunter Bioconfirm software package to identify both parent protein and expected compound adduct mass signatures.

[2] = test system: Cullin-3 (CUL3) neddylation; assay: AlphaLISA assay for Cullin-3 (CUL3) neddylation in TF 1 cells; type: cell-based; conditions: Homo sapiens, TF-1, 3 h, 3 hours treatment
In short: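 Neddylated CUL3 was quantified by AlphaLISA in lysates of TF 1 cells exposed for 3 h to test compound in IMDM without supplements. Percent inhibition set between vehicle and 1 μM DI-1548 positive control; IC50 derived by Hill-equation fitting of dose-response curves.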

[3] = biological target: DCN1 (DCUND1) protein PONY domain (Homo sapiens (Human), UniProt Q96GG9); assay: TR-FRET assay, DCN1 binding with FAM-labeled probe
Sequence of DCN1 (DCUND1) protein PONY domain (Q96GG9 60-248): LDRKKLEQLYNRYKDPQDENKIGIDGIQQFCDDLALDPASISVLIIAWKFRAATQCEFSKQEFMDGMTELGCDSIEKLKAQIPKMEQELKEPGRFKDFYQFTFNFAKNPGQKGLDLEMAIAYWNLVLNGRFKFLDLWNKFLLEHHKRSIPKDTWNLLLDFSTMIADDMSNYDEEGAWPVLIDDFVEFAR
In short: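 First, the E. coli-derived PONY domain was biotinylated and paired with streptavidin Tb cryptate. Compounds in 0.1% DMSO were then added to DCN1 and FAM-probe (5 nM/20 nM, or 0.31 nM/900 nM total with 800 nM unlabelled) in TritonX, 200 mM NaCl buffer. Finally, TR-FRET ratios were recorded at 1, 5 and 24 hrs.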

[4] = 24 hr after treatment with compound, read-out: TR FRET IC50 24 hr
[5] = TR FRET IC50 1 hr (nM), 1 hr after treatment with compound
[6] = read-out: TR FRET IC50 1 hr, 1 hr after treatment with compound

Sequence of DCN1 protein (Q96GG9 whole entry): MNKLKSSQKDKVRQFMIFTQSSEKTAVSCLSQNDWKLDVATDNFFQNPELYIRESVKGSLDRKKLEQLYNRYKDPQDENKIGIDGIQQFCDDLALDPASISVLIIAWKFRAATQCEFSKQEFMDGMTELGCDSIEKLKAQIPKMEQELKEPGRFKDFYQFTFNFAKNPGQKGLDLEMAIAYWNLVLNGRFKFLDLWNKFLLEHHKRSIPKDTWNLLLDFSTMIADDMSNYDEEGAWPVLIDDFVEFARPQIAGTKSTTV

Row | SMILES | % Adduct Formation [1] | IC50 [2] | IC50 [3, 4] | IC50 [3, 5] | IC50 [3, 6]
1 | C=CC(=O)N[C@H](C)c1nn(-c2ccccc2)c2c1[C@H](c1ccc(F)cc1)[C@H](NC(=O)c1cccc(C(F)(F)F)c1)C(=O)N2CC (mixture of isomers) [Compound I-174] | + (MS Emax % adduct formation greater than or equal to 0.0 and less than or equal to 30.0) | – | – | – | –
2 | CCN1C(=O)[C@@H](NC(=O)c2cccc(C(F)(F)F)c2)[C@@H](c2ccc(F)cc2)c2c([C@@H](C)NC(=O)C3=CCC3)nn(-c3ccccc3)c21 (mixture of isomers) [Compound I-237] | + (MS Emax % adduct formation greater than or equal to 0.0 and less than or equal to 30.0) | – | – | – | –
3 | CCN1C(=O)[C@@H](NC(=O)c2cccc(C(F)(F)F)c2)[C@@H](c2ccc(F)cc2)c2c(CN3C(=O)C=CC3=O)nn(-c3ccccc3)c21 (racemic) [Compound I-170] | + (MS Emax % adduct formation greater than or equal to 0.0 and less than or equal to 30.0) | – | – | – | –
4 | CCN1C(=O)[C@@H](NC(=O)[C@@H]2CCN(Cc3ccccc3)C2)[C@@H](C2CC2)c2c(C(=O)N3[C@H](C#N)C[C@H]4C[C@H]43)nn(C3CCOCC3)c21 [Compound I-634] | – | > 1000 nM | 1000 to 3000 nM | 1000 to 3000 nM | –
5 | CCN1C(=O)[C@@H](NC(=O)c2cccc(C(F)(F)F)c2)[C@@H](c2ccc(F)cc2)c2c(CNC/C=C/C(=O)OC(C)(C)C)nn(-c3ccccc3)c21 [Compound I-635] | – | 100 to 1000 nM | ≤ 200 nM | 1000 to 3000 nM | –
6 | CCN1C(=O)[C@@H](NC(=O)c2cccc(C(F)(F)F)c2)[C@@H](C2CC2)c2c(C(=O)N(C)[C@H](C#N)CCN(C)C)nn(C3CCOCC3)c21 [Compound I-589] | – | ≤ 100 nM | ≤ 200 nM | – | ≤ 200 nM
7 | CCN1C(=O)[C@H](NC(=O)c2cccc(C(F)(F)F)c2)[C@H](c2ccc(F)cn2)c2c([C@@H](C)NC#N)nn(-c3ccccc3)c21 [Compound I-525] | – | > 1000 nM | 1000 to 3000 nM | 1000 to 3000 nM | –
8 | CCN1C(=O)[C@@H](NC(=O)c2cccc(C(F)(F)F)c2)[C@@H](C2CC2)c2c(C(=O)N3CS(=O)(=O)C[C@H]3C#N)nn(-c3ccccc3)c21 [Compound I-519] | – | ≤ 100 nM | ≤ 200 nM | – | ≤ 200 nM
9 | CCN1C(=O)[C@@H](NC(=O)c2cccc(C(F)(F)F)c2)[C@@H](c2ccc(F)cc2)c2c(CN3C(=O)CC[C@H]3C#N)nn(-c3ccccc3)c21 [Compound I-622, N-((4S,5S)-3-(((S)-2-cyano-5-oxopyrrolidin-1-yl)methyl)-7-ethyl-4-(4-fluorophenyl)-6-oxo-1-phenyl-4,5,6,7-tetrahydro-1H-pyrazolo[3,4-b]pyridin-5-yl)-3-(trifluoromethyl)benzamide] | – | > 1000 nM | 1000 to 3000 nM | 1000 to 3000 nM | –
10 | CCN1C(=O)[C@@H](NC(=O)C23CC(C(F)F)(C2)C3)[C@@H](C2CC2)c2c(C(=O)N3[C@H](C#N)C[C@H]4C[C@H]43)nn(C3CCOCC3)c21 [Compound I-662] | – | > 1000 nM | 1000 to 3000 nM | 1000 to 3000 nM | –
11 | CCN1C(=O)[C@@H](NC(=O)c2cccc(C(F)(F)F)c2)[C@@H](C2CC2)c2c(C(=O)N3[C@H](C)CC[C@H]3C#N)nn(C3CCOCC3)c21 [Compound I-621] | – | > 1000 nM | 1000 to 3000 nM | 1000 to 3000 nM | –
12 | CCN1C(=O)[C@@H](NC(=O)Cc2ccccc2)[C@@H](C2CC2)c2c(C(=O)N3[C@H](C#N)C[C@H]4C[C@H]43)nn(C3CCOCC3)c21 [Compound I-595] | – | > 1000 nM | 1000 to 3000 nM | 1000 to 3000 nM | –
13 | CCN1C(=O)[C@@H](NC(=O)c2cccc(C(F)(F)F)c2)[C@@H](C2CC2)c2c(C(=O)N3[C@@H](C#N)C[C@@H]4C[C@@H]43)nn(C3CCOCC3)c21 [Compound I-703, N-((4S,5S)-3-((1S,3R,5S)-3-cyano-2-azabicyclo[3.1.0]hexane-2-carbonyl)-4-cyclopropyl-7-ethyl-6-oxo-1-(tetrahydro-2H-pyran-4-yl)-4,5,6,7-tetrahydro-1H-pyrazolo[3,4-b]pyridin-5-yl)-3-(trifluoromethyl)benzamide] | – | > 1000 nM | 1000 to 3000 nM | 1000 to 3000 nM | –
14 | CCN1C(=O)[C@H](NC(=O)c2cccc(C(F)(F)F)c2)[C@H](c2ccc(F)cc2)c2c(C(=O)N(CC#N)CC(=O)OC)nn(-c3ccccc3)c21 (stereo in doubt) [Compound I-406] | – | 100 to 1000 nM | ≤ 200 nM | 200 to 1000 nM | –
15 | CCN1C(=O)[C@@H](NC(=O)c2cccc(C(F)(F)F)c2)[C@@H](c2ccc(F)cc2)c2c(CN(C)C/C=C/C(=O)OC(C)(C)C)nn(-c3ccccc3)c21 [Compound I-604, tert-butyl (E)-4-((((4S,5S)-7-ethyl-4-(4-fluorophenyl)-6-oxo-1-phenyl-5-(3-(trifluoromethyl)benzamido)-4,5,6,7-tetrahydro-1H-pyrazolo[3,4-b]pyridin-3-yl)methyl)(methyl)amino)but-2-enoate] | – | > 1000 nM | 1000 to 3000 nM | 1000 to 3000 nM | –
16 | CCN1C(=O)[C@H](NC(=O)c2cccc(C(F)(F)F)c2)[C@H](c2ccc(F)cc2)c2c(C(=O)N(CC#N)C3CC3)nn(-c3ccccc3)c21 (stereo in doubt) [Compound I-674] | – | > 1000 nM | 1000 to 3000 nM | 1000 to 3000 nM | –
17 | CCN1C(=O)[C@@H](NC(=O)c2cccc(C(F)(F)F)c2)[C@@H](c2ccc(F)cc2)c2c(C(=O)N(CC#N)CCN(C)C)nn(-c3ccccc3)c21 (racemic) [Compound I-448] | – | > 1000 nM | ≤ 200 nM | – | ≤ 200 nM
18 | CCN1C(=O)[C@@H](NC(=O)c2ccc3cc[nH]c3c2)[C@@H](C2CC2)c2c(C(=O)N3[C@H](C#N)C[C@H]4C[C@H]43)nn(C3CCOCC3)c21 [Compound I-667] | – | ≤ 100 nM | ≤ 200 nM | 200 to 1000 nM | –
19 | CCN1C(=O)[C@@](C)(NC(=O)c2cccc(C(F)(F)F)c2)[C@@H](C2CC2)c2c(C(=O)N3[C@H](C#N)C[C@H]4C[C@H]43)nn(C3CCOCC3)c21 [Compound I-516, N-((4S,5S)-3-((1R,3S,5R)-3-cyano-2-azabicyclo[3.1.0]hexane-2-carbonyl)-4-cyclopropyl-7-ethyl-5-methyl-6-oxo-1-(tetrahydro-2H-pyran-4-yl)-4,5,6,7-tetrahydro-1H-pyrazolo[3,4-b]pyridin-5-yl)-3-(trifluoromethyl)benzamide] | – | ≤ 100 nM | ≤ 200 nM | – | ≤ 200 nM
20 | CCN1C(=O)[C@@H](NC(=O)c2cccc(C(F)(F)F)c2)[C@@H](C2CC2)c2c(C(=O)N3[C@H](C#N)CC[C@@H]3C)nn(C3CCOCC3)c21 [Compound I-700] | – | 100 to 1000 nM | 200 to 1000 nM | 1000 to 3000 nM | –
21 | CCN1C(=O)[C@@H](NC(=O)c2cccc(C(F)(F)F)c2)[C@@H](C2CCC2)c2c(C(=O)N(CC#N)C3CC3)nn(C3CCOCC3)c21 [Compound I-515] | – | 100 to 1000 nM | ≤ 200 nM | 200 to 1000 nM | –
22 | CCCn1nc(C(=O)N2CCC[C@H]2C#N)c2c1N(CC)C(=O)[C@@H](NC(=O)c1cccc(C(F)(F)F)c1)[C@H]2C1CC1 [Compound I-467] | – | 100 to 1000 nM | ≤ 200 nM | 1000 to 3000 nM | –
23 | CCN1C(=O)[C@@](CO)(NC(=O)c2cccc(C(F)(F)F)c2)[C@@H](c2ccc(F)cc2)c2c([C@@H](C)NC#N)nn(-c3ccccc3)c21 [Compound I-608] | – | > 1000 nM | ≤ 200 nM | 1000 to 3000 nM | –
24 | CCN1C(=O)[C@@H](NC(=O)c2ccc3nonc3c2)[C@@H](C2CC2)c2c(C(=O)N3[C@H](C#N)C[C@H]4C[C@H]43)nn(C3CCOCC3)c21 [Compound I-668] | – | 100 to 1000 nM | 1000 to 3000 nM | 1000 to 3000 nM | –
25 | C#C[C@@H]1CCCN1C(=O)c1nn(C2CCOCC2)c2c1[C@H](C1CC1)[C@H](NC(=O)c1cccc(C(F)(F)F)c1)C(=O)N2CC [Compound I-594] | – | > 1000 nM | 1000 to 3000 nM | 1000 to 3000 nM | –
26 | C=C(CN1CCC(C)(O)C1)C(=O)NCc1nn(-c2ccccc2)c2c1[C@H](c1ccc(F)cc1)[C@H](NC(=O)c1cccc(C(F)(F)F)c1)C(=O)N2CC (stereo partly drawn) [Compound I-25] | – | ≤ 100 nM | ≤ 200 nM | – | ≤ 200 nM
27 | CCN1C(=O)[C@@H](NC(=O)c2cccc(C(F)(F)F)c2)[C@@H](C2CCCC2)c2c(C(=O)N3CCC[C@H]3C#N)nn(C3CCOCC3)c21 [Compound I-469] | – | ≤ 100 nM | ≤ 200 nM | 1000 to 3000 nM | –
